The values below come from article PMC8530938 (Chemico-biological interactions, 2021).

Where two headings read alike, the source gives them in different places.

The test system of one series is yeast ADH1. As to conditions: oxidation; ref [77]; cited from earlier work.
For another series, the system named is yeast ADH2. As to conditions: oxidation; ref [77]; cited from earlier work.
The target of series [1] is T1, T45G yeast alcohol dehydrogenase (ADH1) (Saccharomyces cerevisiae, UniProt P00330, T46G). Description: biochemical. The series is classed as biochemical.
Series [2] deals with wild-type yeast alcohol dehydrogenase (ADH1). To be noted: pH 7.3, 30 °C, ref [21], cited from earlier work.
Series [3] has as its target T1, T45G yeast alcohol dehydrogenase (ADH1).
Series [4] has the same target. Description: Spectrophotometric titration with NAD+ in the presence of 10 mM pyrazole. To be noted: titration in the presence of 10 mM pyrazole. In kind it is binding.
The next series addresses horse liver ADH. To be noted: cited from earlier work.
For series [5], the target named is wild-type yeast enzyme (ADH1). To be noted: read-out: Kd of NAD+; pH 8; ref [11]; cited from earlier work.
The test system of series [6] is horse liver ADH1E with S48A substitution. As to conditions: ref [6]; cited from earlier work.

T1 sequence (P00330 2-348 T46G): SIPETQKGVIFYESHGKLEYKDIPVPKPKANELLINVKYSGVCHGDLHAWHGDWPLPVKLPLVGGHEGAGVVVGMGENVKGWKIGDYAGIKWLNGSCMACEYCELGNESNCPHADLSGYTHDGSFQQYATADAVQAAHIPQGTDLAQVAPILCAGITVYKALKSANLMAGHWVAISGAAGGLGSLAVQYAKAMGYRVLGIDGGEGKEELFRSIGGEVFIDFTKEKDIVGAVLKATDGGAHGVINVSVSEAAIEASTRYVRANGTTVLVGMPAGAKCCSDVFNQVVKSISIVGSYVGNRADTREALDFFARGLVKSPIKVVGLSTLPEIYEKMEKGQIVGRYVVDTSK

In the case of `OCc1ccccc1` [Benzyl alcohol], the results for the turnover number in the series with yeast ADH1 and in the series on yeast ADH2 were 0.012 s⁻¹ and 1.9 s⁻¹, respectively.
Consider `OCC(F)(F)F` [CF3CH2OH, 2,2,2-trifluoroethanol], for which the Ki in [1] is 27000 µM; in series [2] (read-out: Ki, dissociation (inhibition) constant, competitive inhibitor of ethanol), 2500 µM. Further, the “increase of dissociation constant (Ki), T45G relative to wild type” value in series [1] (pH 7.3) stood at 10 fold.
With `NC(=O)C1=CN([C@@H]2O[C@H](COP(=O)(O)OP(=O)(O)OC[C@H]3O[C@@H](n4cnc5c(N)ncnc54)[C@H](O)[C@@H]3O)[C@@H](O)[C@H]2O)C=CC1` [NADH], the “Kq, Michaelis constant for NADH” value in series [1] (pH 7.3, 30 °C) was 47 µM; in series [2], 94 µM. In addition, the Ki in series [1] (read-out: Kiq, dissociation (inhibition) constant for NADH, pH 7.3, 30 °C) is 70 µM; in [3] (read-out: Kiq, NADH, pH 5.52, 30 °C) it was 3.8 µM; in series [3] (read-out: Kiq, NADH, pH 6.06, 30 °C), 8.6 µM; in series [3] (read-out: Kiq, NADH, pH 6.52, 30 °C), 11 µM; in series [3] (read-out: Kiq, NADH, pH 7.00, 30 °C) it was 38 µM; in series [3] (read-out: Kiq, NADH, pH 7.65, 30 °C), 156 µM. Also, the Ki is 290 µM in series [3] (read-out: Kiq, NADH, pH 8.08, 30 °C); 450 µM in series [3] (read-out: Kiq, NADH, pH 8.96, 30 °C); 31 µM in series [2] (read-out: Kiq, dissociation (inhibition) constant for NADH). In addition, the “Kq, NADH” value in series [3] (pH 5.52, 30 °C) came out at 9.6 µM; in [3] (pH 6.06, 30 °C), 3.4 µM; in series [3] (pH 6.52, 30 °C), 18 µM; in series [3] (pH 7.00, 30 °C) it was 13 µM; in series [3] (pH 7.65, 30 °C), 220 µM; in [3] (pH 8.08, 30 °C), 320 µM. The “Kq, NADH” value in [3] (pH 8.96, 30 °C) came to 910 µM.
As for `NC(=O)c1ccc[n+]([C@@H]2O[C@H](COP(=O)([O-])OP(=O)(O)OC[C@H]3O[C@@H](n4cnc5c(N)ncnc54)[C@H](O)[C@@H]3O)[C@@H](O)[C@H]2O)c1` [NAD^+], the “apparent Kd for NAD+” value in series [4] is “about the same as for wild-type enzyme”. Besides, the Kd on horse liver ADH (read-out: Kd of NAD+, open conformation of the protonated enzyme, pH 8, ref [11]) was 670 µM; on horse liver ADH (read-out: observed dissociation constant for NAD+, after deprotonation and the conformational change, ref [52]), 27 µM; in series [5], 1000 µM. Besides, the “Ka, Michaelis constant for NAD+” value in series [1] (pH 7.3, 30 °C, 83 mM potassium phosphate, 40 mM KCl, 0.25 mM EDTA) is 1500 µM; in series [2] (83 mM potassium phosphate, 40 mM KCl, 0.25 mM EDTA) it was 160 µM. The Ki stood at 1600 µM in series [1] (read-out: Kia, dissociation (inhibition) constant for NAD+, pH 7.3, 30 °C); 800 µM in series [3] (read-out: Kia, NAD+, pH 5.60, 30 °C); 650 µM in series [3] (read-out: Kia, NAD+, pH 6.05, 30 °C); 720 µM in [3] (read-out: Kia, NAD+, pH 6.54, 30 °C); 880 µM in series [3] (read-out: Kia, NAD+, pH 7.00, 30 °C); 1130 µM in series [3] (read-out: Kia, NAD+, pH 8.07, 30 °C). Moreover, the Ki in series [3] (read-out: Kia, NAD+, pH 9.00, 30 °C) is 1470 µM; in series [3] (read-out: Kia, NAD+, pH 9.95, 30 °C), 2370 µM; in [2] (read-out: Kia, dissociation (inhibition) constant for NAD+) it was 950 µM. Moreover, the “Ka, NAD+” value in [3] (pH 5.60, 30 °C) worked out at 660 µM; in series [3] (pH 6.05, 30 °C), 510 µM; in series [3] (pH 6.54, 30 °C), 720 µM; in series [3] (pH 7.00, 30 °C), 690 µM; in [3] (pH 8.07, 30 °C), 2100 µM; in series [3] (pH 9.00, 30 °C), 2140 µM. Moreover, the “Ka, NAD+” value in series [3] (pH 9.95, 30 °C) worked out at 1580 µM.
`CC=O` [acetaldehyde]: the “V2/Et, turnover number for acetaldehyde reduction” value in series [1] (pH 7.3, 30 °C) is 7.8 s⁻¹; in series [2] it was 1800 s⁻¹. Also, the “Kp, CH3CHO” value in series [3] (pH 5.52, 30 °C) is listed as 52 mM; in [3] (pH 6.06, 30 °C), 46 mM; in series [3] (pH 6.52, 30 °C) it was 56 mM; in series [3] (pH 7.00, 30 °C), 41 mM; in series [3] (pH 7.65, 30 °C), 43 mM; in series [3] (pH 8.08, 30 °C), 35 mM. Also, the “Kp, CH3CHO” value in [3] (pH 8.96, 30 °C) amounted to 33 mM. In addition, the “V2/Et (acetaldehyde reduction)” value is 21 s⁻¹ in series [3] (pH 5.52, 30 °C); 16 s⁻¹ in [3] (pH 6.06, 30 °C); 16 s⁻¹ in series [3] (pH 6.52, 30 °C); 9.5 s⁻¹ in [3] (pH 7.00, 30 °C); 9.3 s⁻¹ in series [3] (pH 7.65, 30 °C); 7.3 s⁻¹ in [3] (pH 8.08, 30 °C). Further, in [3] (pH 8.96, 30 °C), the “V2/Et (acetaldehyde reduction)” value was 4.2 s⁻¹.
As to `CCO` [ethanol], in series [6], the turnover with ethanol was 0.018 s⁻¹. Also, the “V1/Et, turnover number for ethanol oxidation” value in series [1] (pH 7.3, 30 °C) was 0.64 s⁻¹; in series [2], 360 s⁻¹. Moreover, the “V1/Et (ethanol oxidation)” value came out at 0.11 s⁻¹ in series [3] (pH 5.60, 30 °C); 0.19 s⁻¹ in [3] (pH 6.05, 30 °C); 0.32 s⁻¹ in series [3] (pH 6.54, 30 °C); 0.42 s⁻¹ in [3] (pH 7.00, 30 °C); 0.72 s⁻¹ in [3] (pH 8.07, 30 °C); 0.56 s⁻¹ in series [3] (pH 9.00, 30 °C). The “V1/Et (ethanol oxidation)” value in series [3] (pH 9.95, 30 °C) turned out to be 0.44 s⁻¹. Moreover, in series [3] (read-out: Kb, CH3CH2OH, pH 9.95, 30 °C), the Kb came to 91000 µM.
